Read-outs that look alike come from different tables or passages of the source.

For one test, the target named is hJAK2 (Homo sapiens (Human), UniProt O60674). The experiment in a line: hJAK2 LANCE TR-FRET enzymatic assay. It counts as biochemical. The note with it: read-out: JAK2 IC50.
A further test deals with IKKε (Homo sapiens (Human), UniProt Q14164). Briefly: IKKε TR-FRET enzymatic assay. It counts as biochemical. The note with it: read-out: IKKe IC50.
The target of another test is TBK1 (Homo sapiens (Human), UniProt Q9UHD2). The experiment in a line: TBK1 TR-FRET enzymatic assay.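 Also: phosphorylation of a biotinylated Ser/Thr peptide by purified full-length recombinant TBK1, read by TR-FRET after 240 min at 25 °C, IC50 is the geometric mean of at least four runs.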
Where [1] appears, read: TR-FRET, 2×Km ATP, geometric mean of minimum four determinations.

Sequence of IKKε (Q14164 whole entry): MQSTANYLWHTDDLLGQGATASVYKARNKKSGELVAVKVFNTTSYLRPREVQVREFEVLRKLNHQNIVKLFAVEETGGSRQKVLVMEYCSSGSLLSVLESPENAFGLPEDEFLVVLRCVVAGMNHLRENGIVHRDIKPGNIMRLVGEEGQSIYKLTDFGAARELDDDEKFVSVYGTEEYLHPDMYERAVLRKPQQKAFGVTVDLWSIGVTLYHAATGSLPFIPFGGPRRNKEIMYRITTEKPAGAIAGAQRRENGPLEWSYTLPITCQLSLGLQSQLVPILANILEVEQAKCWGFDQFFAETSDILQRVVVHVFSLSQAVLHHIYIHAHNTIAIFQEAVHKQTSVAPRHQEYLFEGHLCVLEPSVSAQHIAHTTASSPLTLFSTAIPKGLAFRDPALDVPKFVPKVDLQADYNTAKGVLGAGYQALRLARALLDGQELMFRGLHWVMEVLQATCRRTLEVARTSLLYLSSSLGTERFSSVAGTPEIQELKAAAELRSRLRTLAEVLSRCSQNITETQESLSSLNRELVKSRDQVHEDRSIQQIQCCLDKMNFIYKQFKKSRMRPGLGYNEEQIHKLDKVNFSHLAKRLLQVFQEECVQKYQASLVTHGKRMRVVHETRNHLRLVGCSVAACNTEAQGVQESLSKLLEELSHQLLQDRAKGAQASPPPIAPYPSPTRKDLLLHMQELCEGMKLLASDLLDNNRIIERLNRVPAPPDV
Sequence of hJAK2 (O60674 whole entry): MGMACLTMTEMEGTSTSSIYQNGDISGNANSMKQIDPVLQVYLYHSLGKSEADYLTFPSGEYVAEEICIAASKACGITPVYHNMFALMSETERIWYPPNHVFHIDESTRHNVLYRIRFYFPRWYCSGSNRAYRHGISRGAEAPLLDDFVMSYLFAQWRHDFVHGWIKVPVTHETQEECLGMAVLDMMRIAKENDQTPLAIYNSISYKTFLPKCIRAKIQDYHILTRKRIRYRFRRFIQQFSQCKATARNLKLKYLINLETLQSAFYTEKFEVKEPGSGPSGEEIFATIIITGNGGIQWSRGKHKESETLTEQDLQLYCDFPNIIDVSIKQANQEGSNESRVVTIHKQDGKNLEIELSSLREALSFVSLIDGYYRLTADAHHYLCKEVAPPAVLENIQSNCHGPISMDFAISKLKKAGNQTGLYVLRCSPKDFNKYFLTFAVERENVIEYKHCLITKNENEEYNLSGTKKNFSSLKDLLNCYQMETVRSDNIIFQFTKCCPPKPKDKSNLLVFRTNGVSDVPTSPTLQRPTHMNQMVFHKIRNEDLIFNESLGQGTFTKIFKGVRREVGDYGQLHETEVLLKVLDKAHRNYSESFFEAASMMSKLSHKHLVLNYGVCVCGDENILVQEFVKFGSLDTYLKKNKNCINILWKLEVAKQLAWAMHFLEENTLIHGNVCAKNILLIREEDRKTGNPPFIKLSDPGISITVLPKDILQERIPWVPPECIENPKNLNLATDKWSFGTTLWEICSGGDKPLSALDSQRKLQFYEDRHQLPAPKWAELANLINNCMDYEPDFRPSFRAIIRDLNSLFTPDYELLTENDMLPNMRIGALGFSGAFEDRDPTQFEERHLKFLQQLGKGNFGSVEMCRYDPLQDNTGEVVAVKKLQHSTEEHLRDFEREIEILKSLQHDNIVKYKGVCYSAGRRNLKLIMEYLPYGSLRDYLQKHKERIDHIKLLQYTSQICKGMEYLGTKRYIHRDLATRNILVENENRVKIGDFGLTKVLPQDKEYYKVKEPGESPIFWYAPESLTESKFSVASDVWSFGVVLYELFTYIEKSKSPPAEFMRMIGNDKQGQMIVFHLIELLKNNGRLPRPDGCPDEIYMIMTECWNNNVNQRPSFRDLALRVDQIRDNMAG
Sequence of TBK1 (Q9UHD2 whole entry): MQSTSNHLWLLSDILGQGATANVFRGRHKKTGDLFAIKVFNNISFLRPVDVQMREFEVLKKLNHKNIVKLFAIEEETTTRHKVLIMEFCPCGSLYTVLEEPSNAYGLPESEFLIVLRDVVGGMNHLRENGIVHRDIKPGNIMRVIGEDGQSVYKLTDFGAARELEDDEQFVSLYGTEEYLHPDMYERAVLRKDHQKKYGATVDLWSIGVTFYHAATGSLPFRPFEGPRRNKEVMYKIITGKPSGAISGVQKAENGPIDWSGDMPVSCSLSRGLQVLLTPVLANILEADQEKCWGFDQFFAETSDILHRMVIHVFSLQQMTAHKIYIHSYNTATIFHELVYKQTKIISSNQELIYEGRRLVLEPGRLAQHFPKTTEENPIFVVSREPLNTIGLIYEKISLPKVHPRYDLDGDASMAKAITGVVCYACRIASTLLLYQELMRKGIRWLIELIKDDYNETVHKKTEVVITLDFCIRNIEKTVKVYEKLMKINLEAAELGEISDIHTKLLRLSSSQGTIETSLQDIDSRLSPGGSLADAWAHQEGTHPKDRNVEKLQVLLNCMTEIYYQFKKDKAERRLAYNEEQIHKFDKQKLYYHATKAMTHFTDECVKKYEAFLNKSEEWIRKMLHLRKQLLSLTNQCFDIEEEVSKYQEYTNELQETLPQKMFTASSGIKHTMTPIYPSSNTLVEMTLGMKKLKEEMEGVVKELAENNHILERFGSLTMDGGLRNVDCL

For `CC(C)(O)c1ccc(Nc2ncnc(-c3ccc(O[C@H]4CCN(C(=O)CO)C[C@H]4F)c(C#N)c3)n2)cn1` [Example 388, 2-(((3R,4S)-3-fluoro-1-(2-hydroxyacetyl)piperidin-4-yl)oxy)-5-(4-((6-(2-hydroxypropan-2-yl)pyridin-3-yl)amino)-1,3,5-triazin-2-yl)benzonitrile], the figures for the IC50 at hJAK2, at IKKε and on TBK1 were no less than 1000 nM, 4 nM and 6 nM, respectively.

Take `COc1cc(Nc2ncnc(-c3ccc(O[C@H]4CCN(C(=O)[C@H](C)O)C[C@H]4F)c(C#N)c3)n2)ccc1N1CCN(C2COC2)CC1` [Example 389, 2-(((3R,4S)-3-fluoro-1-((S)-2-hydroxypropanoyl)piperidin-4-yl)oxy)-5-(4-((3-methoxy-4-(4-(oxetan-3-yl)piperazin-1-yl)phenyl)amino)-1,3,5-triazin-2-yl)benzonitrile]: the figures for the half-inhibitory concentration (IC50) at hJAK2, on IKKε and against TBK1 were 55 nM, 1 nM and 2 nM, respectively.

Turning to `N#Cc1cc(-c2ncnc(Nc3ccc(N4CCN(C5COC5)CC4)cc3)n2)ccc1O[C@H]1CCN(C(=O)c2ccncc2N)C[C@H]1F` [Example 390, 2-(((3R,4S)-1-(3-aminoisonicotinoyl)-3-fluoropiperidin-4-yl)oxy)-5-(4-((4-(4-(oxetan-3-yl)piperazin-1-yl)phenyl)amino)-1,3,5-triazin-2-yl)benzonitrile], the IC50 on hJAK2 was 37 nM; at IKKε it was 165 nM; on TBK1, 65 nM.

As to `N#Cc1cc(-c2ncnc(Nc3ccc(N4CCN(C5COC5)CC4)cc3)n2)ccc1O[C@H]1CCN(C(=O)c2[nH]ncc2N)C[C@H]1F` [Example 391, 2-(((3R,4S)-1-(4-amino-1H-pyrazole-5-carbonyl)-3-fluoropiperidin-4-yl)oxy)-5-(4-((4-(4-(oxetan-3-yl)piperazin-1-yl)phenyl)amino)-1,3,5-triazin-2-yl)benzonitrile], the IC50 amounted to 122 nM on hJAK2, 9 nM at IKKε and 6 nM on TBK1.

For `COc1cc(Nc2ncnc(-c3ccc(O[C@H]4CCN(C(=O)CO)C[C@H]4F)c(C#N)c3)n2)ccc1N1CCN(C2COC2)CC1` [Example 392, 2-(((3R,4S)-3-fluoro-1-(2-hydroxyacetyl)piperidin-4-yl)oxy)-5-(4-((3-methoxy-4-(4-(oxetan-3-yl)piperazin-1-yl)phenyl)amino)-1,3,5-triazin-2-yl)benzonitrile], the IC50 on hJAK2 amounted to 26 nM; at IKKε, 1 nM; against TBK1, 5 nM.

Turning to `N#Cc1cc(-c2ncnc(Nc3ccc(N4CCN(C5COC5)CC4)c(OC(F)F)c3)n2)ccc1O[C@H]1CCN(C(=O)CO)C[C@H]1F` [Example 393, 5-(4-((3-(difluoromethoxy)-4-(4-(oxetan-3-yl)piperazin-1-yl)phenyl)amino)-1,3,5-triazin-2-yl)-2-(((3R,4S)-3-fluoro-1-(2-hydroxyacetyl)piperidin-4-yl)oxy)benzonitrile], the IC50 is 29 nM at hJAK2, 1 nM at IKKε and 3 nM at TBK1.

`Cc1cc(Nc2ncnc(-c3ccc(O[C@H]4CCN(C(=O)CO)C[C@H]4F)c(C#N)c3)n2)ccc1N1CCN(C2COC2)CC1` [Example 394, 2-(((3R,4S)-3-fluoro-1-(2-hydroxyacetyl)piperidin-4-yl)oxy)-5-(4-((3-methyl-4-(4-(oxetan-3-yl)piperazin-1-yl)phenyl)amino)-1,3,5-triazin-2-yl)benzonitrile]: the results for the IC50 on hJAK2, at IKKε and against TBK1 were 64 nM, 1 nM and 2 nM, respectively.

For `C[C@H](O)C(=O)N1CC[C@H](Oc2ccc(-c3ncnc(Nc4ccc(N5CCN(C6COC6)CC5)c(OC(F)F)c4)n3)cc2C#N)[C@H](F)C1` [Example 395, 5-(4-((3-(difluoromethoxy)-4-(4-(oxetan-3-yl)piperazin-1-yl)phenyl)amino)-1,3,5-triazin-2-yl)-2-(((3R,4S)-3-fluoro-1-((S)-2-hydroxypropanoyl)piperidin-4-yl)oxy)benzonitrile], the IC50 worked out at 119 nM at hJAK2, 1 nM on IKKε and 2 nM at TBK1.

Turning to `Cc1cc(Nc2ncnc(-c3ccc(O[C@H]4CCN(C(=O)[C@H](C)O)C[C@H]4F)c(C#N)c3)n2)ccc1N1CCN(C2COC2)CC1` [Example 396, 2-(((3R,4S)-3-fluoro-1-((S)-2-hydroxypropanoyl)piperidin-4-yl)oxy)-5-(4-((3-methyl-4-(4-(oxetan-3-yl)piperazin-1-yl)phenyl)amino)-1,3,5-triazin-2-yl)benzonitrile], the values for the IC50 on hJAK2, at IKKε and at TBK1 were 137 nM, 1 nM and 2 nM, respectively.

For the molecule `CC(C)(O)c1cc(Nc2ncnc(-c3ccc(O[C@H]4CCN(C(=O)CO)C[C@H]4F)c(C#N)c3)n2)ccn1` [Example 397, 2-(((3R,4S)-3-fluoro-1-(2-hydroxyacetyl)piperidin-4-yl)oxy)-5-(4-((2-(2-hydroxypropan-2-yl)pyridin-4-yl)amino)-1,3,5-triazin-2-yl)benzonitrile], the figures for the 50% inhibitory concentration (IC50) at hJAK2, on IKKε and against TBK1 were 960 nM, 2 nM and 2 nM, respectively.

Consider `CN1CC[C@H](Oc2ccc(Nc3ncnc(-c4ccc(O[C@H]5CCN(C(=O)[C@@H](O)CO)C[C@H]5F)c(C#N)c4)n3)cc2)[C@H](F)C1` [Example 398, 2-(((3R,4S)-1-((S)-2,3-dihydroxypropanoyl)-3-fluoropiperidin-4-yl)oxy)-5-(4-((4-(((3R,4S)-3-fluoro-1-methylpiperidin-4-yl)oxy)phenyl)amino)-1,3,5-triazin-2-yl)benzonitrile], for which the concentration for half-maximal inhibition (IC50) at hJAK2 stood at 763 nM; on IKKε it was 1 nM; against TBK1, 3 nM.

Regarding `COc1cc(Nc2ncnc(-c3ccc(N4C[C@H](O)CCC4=O)c(C#N)c3)n2)ccc1N1CCN(C2COC2)CC1` [Example 399, (R)-2-(5-hydroxy-2-oxopiperidin-1-yl)-5-(4-((3-methoxy-4-(4-(oxetan-3-yl)piperazin-1-yl)phenyl)amino)-1,3,5-triazin-2-yl)benzonitrile], the half-inhibitory concentration (IC50) on hJAK2 came out at 174 nM; at IKKε (setting [1]), 270 nM; at TBK1, 152 nM.

With `C[C@H](O)C(=O)N1CC[C@H](Oc2ccc(-c3ncnc(Nc4ccc(O[C@H]5CCN(C)C[C@H]5F)cc4)n3)cc2C#N)[C@H](F)C1` [Example 400, 2-(((3R,4S)-3-fluoro-1-((S)-2-hydroxypropanoyl)piperidin-4-yl)oxy)-5-(4-((4-(((3R,4S)-3-fluoro-1-methylpiperidin-4-yl)oxy)phenyl)amino)-1,3,5-triazin-2-yl)benzonitrile], the IC50 on hJAK2 is no less than 1000 nM; at IKKε (setting [1]), 1 nM; against TBK1, 3 nM.

On to `COCC(=O)N1CC[C@H](Oc2ccc(-c3ncnc(Nc4ccc(N5CCN(C6COC6)CC5)c(F)c4)n3)cc2C#N)[C@H](F)C1` [Example 402, 2-(((3R,4S)-3-fluoro-1-(2-methoxyacetyl)piperidin-4-yl)oxy)-5-(4-((3-fluoro-4-(4-(oxetan-3-yl)piperazin-1-yl)phenyl)amino)-1,3,5-triazin-2-yl)benzonitrile], for which the IC50 on hJAK2 was no less than 1000 nM; at IKKε (setting [1]), 3 nM; at TBK1 it was 3 nM.

For the molecule `CN1C(=O)CC[C@H]1C(=O)N1CC[C@H](Oc2ccc(-c3ncnc(Nc4ccc(N5CCN(C6COC6)CC5)cc4)n3)cc2C#N)[C@H](F)C1` [Example 407, 2-(((3R,4S)-3-fluoro-1-((S)-1-methyl-5-oxopyrrolidine-2-carbonyl)piperidin-4-yl)oxy)-5-(4-((4-(4-(oxetan-3-yl)piperazin-1-yl)phenyl)amino)-1,3,5-triazin-2-yl)benzonitrile], the IC50 on hJAK2 is no less than 1000 nM; on IKKε (setting [1]), 165 nM; on TBK1 it was 165 nM.

As to `CN1C(=O)CC[C@H]1C(=O)N1CC[C@H](Oc2ccc(-c3ncnc(Nc4ccc(N5CCN(C6COC6)CC5)c(F)c4)n3)cc2C#N)[C@H](F)C1` [Example 408, 2-(((3R,4S)-3-fluoro-1-((S)-1-methyl-5-oxopyrrolidine-2-carbonyl)piperidin-4-yl)oxy)-5-(4-((3-fluoro-4-(4-(oxetan-3-yl)piperazin-1-yl)phenyl)amino)-1,3,5-triazin-2-yl)benzonitrile], the IC50 is no less than 1000 nM on hJAK2, 119 nM on IKKε (setting [1]) and 86 nM against TBK1.

Take `C[C@@H](O)C(=O)N1C[C@@H](F)[C@@H](Oc2ccc(-c3ncnc(Nc4ccc(N5CCN(C6COC6)CC5)cc4)n3)cc2C#N)C[C@@H]1C` [Example 412, 2-(((2S,4S,5R)-5-fluoro-1-((R)-2-hydroxypropanoyl)-2-methylpiperidin-4-yl)oxy)-5-(4-((4-(4-(oxetan-3-yl)piperazin-1-yl)phenyl)amino)-1,3,5-triazin-2-yl)benzonitrile]: the IC50 was no less than 1000 nM on hJAK2, 202 nM on IKKε (setting [1]) and 43 nM against TBK1.

Turning to `N#Cc1cc(-c2ncnc(Nc3ccc(N4CCN(C5COC5)CC4)cc3)n2)ccc1O[C@H]1CCN(C(=O)c2cccc(=O)[nH]2)C[C@H]1F` [Example 413, 2-(((3R,4S)-3-fluoro-1-(6-oxo-1,6-dihydropyridine-2-carbonyl)piperidin-4-yl)oxy)-5-(4-((4-(4-(oxetan-3-yl)piperazin-1-yl)phenyl)amino)-1,3,5-triazin-2-yl)benzonitrile], the IC50 worked out at 109 nM on hJAK2, 2 nM at IKKε (setting [1]) and 3 nM against TBK1.

Consider `N#Cc1cc(-c2ncnc(Nc3ccc(N4CCN(C5COC5)CC4)cc3)n2)ccc1O[C@H]1CCN(C(=O)C2CNC(=O)N2)C[C@H]1F` (stereo partly drawn) [Example 414, 2-(((3R,4S)-3-fluoro-1-(2-oxoimidazolidine-4-carbonyl)piperidin-4-yl)oxy)-5-(4-((4-(4-(oxetan-3-yl)piperazin-1-yl)phenyl)amino)-1,3,5-triazin-2-yl)benzonitrile], for which the values for the half-maximal inhibitory concentration (IC50) on hJAK2, at IKKε (setting [1]) and against TBK1 were 163 nM, 3 nM and 3 nM, respectively.

(Values after US10040781B2, “Tank-binding kinase inhibitor compounds” (Gilead Sciences, Inc., priority 2014, dated 2018).)
